How the values were obtained:
Assay in all cases: relative viability (nuclei count vs DMSO), 5 days (fraction); higher = more cells survive
[1] = compound: Cc1ccc2nc(NCCN)c3ncc(C)n3c2c1 + NC(=O)Nc1cc(-c2cccc(F)c2)sc1C(=O)N[C@H]1CCCNC1 [AZD7762] (partner 0.2 µM)
Method in brief: (§1)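 A single step with final 0.05% Triton X-100, 1% formaldehyde and 1 ug/ml Hoechst fixed the cells and stained nuclei 5 days after treatment. Lung cancer cell lines in 1536-well plates had been treated by pin tool the day after seeding with one drug alone or a fixed anchor-drug dose plus five library-drug doses (not always all listed) in √10 steps, and nuclei were counted on 4× images. Relative viability is the ratio of nuclei in treated wells to nuclei in vehicle wells, taken as the median of duplicate plates.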

[2] = compound: Cc1ccc2nc(NCCN)c3ncc(C)n3c2c1 + CS(=O)(=O)N1CCN(Cc2cc3nc(-c4cccc5[nH]ncc45)nc(N4CCOCC4)c3s2)CC1 [Pictilisib] (partner 1 µM)
Method in brief: as §1

Salubrinal + Phenformin = compound: O=C(/C=C/c1ccccc1)NC(NC(=S)Nc1cccc2cccnc12)C(Cl)(Cl)Cl [Salubrinal] + N=C(N)NC(=N)NCCc1ccccc1 [Phenformin] (partner 250 µM)
Method in brief: as §1

[3] = compound: Cc1ccc2nc(NCCN)c3ncc(C)n3c2c1 + CC(=O)Nc1cccc(-n2c(=O)n(C3CC3)c(=O)c3c(Nc4ccc(I)cc4F)n(C)c(=O)c(C)c32)c1 [Trametinib] (partner 0.02 µM)
Method in brief: as §1

Cell Line	relative viability ([1]; first compound 0.04 µM)	relative viability ([1]; first compound 0.1265 µM)	relative viability ([1]; first compound 0.4 µM)	relative viability ([1]; first compound 1.265 µM)	relative viability ([1]; first compound 4 µM)	relative viability ([2]; first compound 0.04 µM)	relative viability ([2]; first compound 0.1265 µM)	relative viability ([2]; first compound 0.4 µM)	relative viability ([2]; first compound 1.265 µM)	relative viability ([2]; first compound 4 µM)	relative viability (Salubrinal + Phenformin; first compound 0.08 µM)	relative viability (Salubrinal + Phenformin; first compound 0.253 µM)	relative viability (Salubrinal + Phenformin; first compound 0.8 µM)	relative viability (Salubrinal + Phenformin; first compound 2.53 µM)	relative viability (Salubrinal + Phenformin; first compound 8 µM)	relative viability ([3]; first compound 0.04 µM)	relative viability ([3]; first compound 0.1265 µM)	relative viability ([3]; first compound 0.4 µM)	relative viability ([3]; first compound 1.265 µM)	relative viability ([3]; first compound 4 µM)
NCI-H838	1.05	0.932	0.914	0.858	0.874	0.43	0.416	0.409	0.423	0.365	0.657	0.379	0.695	0.602	0.622	0.561	0.507	0.45	0.507	0.612
NCI-H1755	0.476	0.45	0.492	0.435	0.433	0.485	0.439	0.476	0.39	0.411	0.639	0.676	0.652	0.625	0.552	0.757	0.809	0.769	0.8	0.776
HCC-78	0.828	0.72	0.616	0.752	0.586	0.229	0.23	0.222	0.215	0.217	0.736	0.647	0.898	0.75	0.679	0.703	0.672	0.699	0.527	0.536
IA-LM	–	–	–	–	–	0.343	0.335	0.188	0.238	0.347	–	–	–	–	–	–	–	–	–	–
NCI-H322M	0.446	0.703	0.638	0.552	0.605	0.521	0.566	0.571	0.512	0.503	0.783	0.725	0.929	0.769	0.678	0.522	0.538	0.495	0.502	0.535
NCI-H3122	1.05	1.04	0.98	0.973	1.05	0.646	0.585	0.541	0.735	0.672	0.42	0.371	0.412	0.367	0.356	0.21	0.26	0.248	0.259	0.238
COR-L23	–	–	–	–	–	0.866	0.7	0.741	0.85	0.741	0.526	0.359	0.458	0.422	0.433	0.581	0.564	0.624	0.648	0.506
NCI-H2087	1.35	1.25	1.27	1.28	1.26	1.05	0.824	0.816	0.981	0.984	0.472	0.361	0.527	0.471	0.476	0.18	0.208	0.194	0.16	0.204
NCI-H1623	–	–	–	–	–	–	–	–	–	–	0.522	0.564	0.61	0.578	0.551	–	–	–	–	–
NCI-H2023	–	–	–	–	–	0.222	0.242	0.238	0.288	0.201	0.471	0.37	0.461	0.368	0.276	0.595	0.561	0.661	0.574	0.32
COR-L 105	–	–	–	–	–	0.507	0.399	0.422	0.468	0.31	0.556	0.479	0.452	0.511	0.42	0.423	0.506	0.478	0.407	0.414
NCI-H520	–	–	–	–	–	0.276	0.283	0.282	0.294	0.368	0.56	0.556	0.831	0.646	0.54	0.75	0.658	0.753	0.677	0.621
SK-LU-1	–	–	–	–	–	0.573	0.507	0.604	0.562	0.291	0.647	0.4	0.594	0.555	0.435	0.427	0.509	0.478	0.546	0.462
NCI-H522	0.754	0.778	0.634	0.843	0.765	–	–	–	–	–	0.723	0.662	0.714	0.615	0.605	0.641	0.753	0.791	0.719	0.684
NCI-H1299	–	–	–	–	–	0.864	0.761	0.735	0.55	0.263	–	–	–	–	–	–	–	–	–	–
NCI-H1650	–	–	–	–	–	0.531	0.564	0.429	0.527	0.515	0.497	0.462	0.423	0.423	0.422	0.57	0.499	0.739	0.494	0.427
NCI-H2009	–	–	–	–	–	0.866	0.767	0.841	0.762	0.765	0.534	0.492	0.489	0.454	0.411	0.309	0.251	0.286	0.273	0.28
SW 900	–	0.56	0.438	0.694	0.736	–	–	–	–	–	0.555	–	0.656	0.607	0.676	–	0.901	0.827	0.749	0.621
SK-MES-1	–	–	–	–	–	0.411	0.345	0.341	0.378	0.35	0.703	0.64	0.668	0.672	0.605	0.545	0.556	0.539	0.594	0.573
A549	–	–	–	–	–	0.587	0.439	0.451	0.451	0.345	0.174	0.143	0.175	0.119	0.17	–	–	–	–	–
NCI-H661	–	–	–	–	–	0.511	0.514	0.421	0.35	0.299	0.278	0.283	0.28	0.288	0.275	0.579	0.57	0.567	0.574	0.544
NCI-H1563	–	–	–	–	–	0.706	0.582	0.701	0.607	0.633	0.71	0.617	0.647	0.635	0.692	–	–	–	–	–
ABC-1	0.765	0.999	0.798	0.741	0.648	0.721	0.78	0.822	0.813	0.678	0.225	0.268	0.281	0.214	0.24	–	–	–	–	–
